We go through one compound from US11759480B2, “Compositions and methods for CAR T cell therapy” (ENDOCYTE, INC., priority 2017, dated 2023).

In data set [1] the test system is MDA-MB-231 solid tumor xenografts. In kind it is in vivo. As for the experimental part: MDA-MB-231 cells were subcutaneously injected into the shoulders of NSG mice (Jackson Laboratory) to establish solid tumor xenografts. When tumor volume reached around 50-100 mm^3, anti-FITC CAR T cells (15×10^6 cells) were intravenously introduced into tumor-bearing mice. Twenty NSG mice were divided into four study groups (5 animals in each group). The first group was treated with anti-FITC CAR T cells with phosphate-buffered saline (PBS) as a negative control. The second, third, and fourth groups were treated with anti-FITC CAR T cells with FITC-Folate (500 nmole/kg) every other day. Once a significant toxicity (e.g. serious loss of body weight) was detected, these groups were treated with either: continued FITC-Folate administration (second group); discontinuation of FITC-Folate administration until the mice recovered (third group); or a mixture of 100-fold excess of EC0923 (i.e. free folate) and FITC-Folate until the mice recovered (fourth group). The body weight was measured regularly to monitor toxicity. In addition, the blood concentration of interferon (IFN)-gamma for each treatment group was measured to monitor the degree of anti-FITC CAR T activation. Finally, tumor volume was measured to identify anti-tumor efficacy in each treatment group.

For data set [2] the test system is unchanged. Briefly: Anti-tumor efficacy and toxicity of CAR T cells with EC17 in vivo (Example 17). Set-up: species or system NSG mice. As for the experimental part:
Immunodeficient NSG mice (Jackson Laboratory) were used to identify the efficacy of CAR T cell anti-tumor activity in vivo. A folate receptor expressing MDA-MB-231 cancer cell line was subcutaneously injected into the back of NSG mice to establish solid tumor xenografts. When tumor volume of around 100-300 mm^3 was reached, a desired concentration of EC17 (as shown in the figure legends) was introduced 4 hours before the administration of a desired number of CAR T cell (as shown in the figure legends) into the mice bearing tumors. After initial administration of EC17 and CAR T cells, desired concentrations of EC17 (as shown in the figure legends) were also introduced (i.v.) three times per week. Control mice were administered T cells without CAR modification. Other control mice were administrated CAR-Ts, but PBS was dosed instead of EC17. Anti-tumor efficacy was monitored by tumor volume. General toxicity of the therapy was monitored by weight loss, gross animal morphology and behavior.

The subject of data set [3] is naïve mice without tumors. Briefly: CAR-T cells with EC17 in naïve mice without tumors (Example 25). The conditions noted are these: 500 nmoles/kg three times per week. Type of data set: in vivo. As for the experimental part: Five million CAR-T cells were injected (i.v.) into naïve mice without tumors. 500 nmoles/kg EC17 was administrated three times per week. Mice were monitored for 5 weeks, and some were euthanized every week to evaluate organs.

A further data set has as its system MDA-MB-231. Briefly: FITC-CAR-T/EC17 therapy, MDA-MB-231 model (Example 28). Type of data set: in vivo, NSG mice. Particulars: 500 nmol/kg weekly, 5 million FITC-CAR-T. As for the experimental part:
(§1) To test whether FITC-CAR-T/EC17 therapy has anti-tumor activity in various FR+ tumor models, NSG mice were subcutaneously implanted with MDA-MB-231 (triple negative breast cancer cell line), OV90 (human ovarian cancer cell line), KB (human cervical adenocarcinoma cell line), SKOV-3 (human ovarian carcinoma cell line), or HEK293-FRa (HEK293 stably-transfected with human FRa). When tumor size reached […], one dose of EC17 at 500 nmol/kg of body weight was injected by tail vein followed with administering of 5 million FITC-CAR-T cells 4 hours later. 500 nmol/kg EC17 was dosed once every week after the initial EC17/CAR-T administration (about day 7), tumor size and body weights of mice were monitored three times per week. The EC17 dosing days were labeled as green dashed vertical lines in the graph. […] EC17 dose-dependent temporary body weight loss was also observed in all tumor bearing mice, indicating the activation of CAR-Ts is EC17-dependent in these mice.

The test system of the next data set is OV90. Briefly: FITC-CAR-T/EC17 therapy, OV90 model (Example 28). Type of data set: in vivo, NSG mice. Particulars: 500 nmol/kg weekly, 5 million FITC-CAR-T. As for the experimental part:
as §1

The next data set relates to HEK293-FRa. Briefly: FITC-CAR-T/EC17 therapy, HEK293-FRa model (Example 28). The conditions noted are these: 500 nmol/kg weekly, 5 million FITC-CAR-T. In kind it is in vivo, NSG mice. As for the experimental part: as §1
The next data set relates to FR+ MDA-MB-231 tumors. Briefly: FITC-CAR-T toxicity and spleen size in MDA-MB-231 s.c. model (Example 37). Type of data set: in vivo, mice. As for the experimental part: The evaluation of FITC-CAR-T proliferation and related toxicity in both naïve mice and mice bearing FR+ tumor xenografts was tested. To evaluate whether FITC-CAR-T proliferation in vivo is dependent on the co-existence of the bridge (e.g. EC17) and the tumor antigen (e.g. folate receptor), FITC-CAR-T proliferation in vivo was compared in naïve mice and mice bearing FR+ tumor xenografts, either with or without EC17. 5-8 million CAR-T cells (as indicated in FIGS. 42 and 43) were administered (i.v.) into naïve mice without tumors and mice bearing FR+ tumor xenografts (80-200 mm3). 500 nmol/kg EC17 was dosed 4 hours before and three times per week post CAR-T administration, if desired. Mice were monitored for body weight changes and CAR-T cell count in blood circulation; some mice were also euthanized weekly to evaluate organs. […] CAR-T cell count in blood samples was also compared to evaluate CAR-T proliferation. […] Since the enlargement of spleen size is another indicator for CAR-T proliferation in vivo, spleen size was also measured as shown in FIG. 43B.
For FIG. 42, the MDA-MB-231 s.c. model was used. For FIG. 43A, the HEK-FRa s.c. xenograft model was used. For FIG. 43B, the MDA-MB-231 s.c. model was used.

Where two headings read alike, the source gives them in different places.

For `Nc1nc2ncc(CNc3ccc(C(=O)NC(CCC(=O)NCCNC(=S)Nc4ccc(-c5c6ccc(=O)cc-6oc6cc(O)ccc56)c(C(=O)O)c4)C(=O)O)cc3)nc2c(=O)[nH]1` (stereo not drawn) [EC17, FITC-Folate], in data set [1] (break group), the IFN-gamma blood concentration result is “decreased” and the complete response stood at 100%. For the same compound, in data set [1] (continued dose group), the IFN-gamma blood concentration entry was “a significant amount IFN-gamma was detected”, the “survival of mice at the first week of treatment” value came to 40% and the tumor response result was “delay of tumor growth”. For the same compound, in data set [2] (5 million CAR T cells), the “effect of changing dosing frequency from TIW to SIW” value was “reduce the toxicity and achieve better anti-tumor potency”. For the same compound, in data set [2] (EC17 20 and 100 nmoles/kg), the anti-tumor outcome is listed as “complete cures”; the “sCRS and body weight loss compared to 500 nmoles/kg cohort” value was “a lower percentage of sCRS and less body weight loss”. In data set [2] (optimized EC17 amount and CAR T numbers, complete cures reached), this compound registered a body weight loss of 2%. Further, in data set [2] (over-saturated EC17 doses 1500 and 10000 nmoles/kg), the sCRS and cures entry was “less mice showed sCRS but less mice reached cures”. The “CAR-T cell proliferation (blood count, spleen size)” value in data set [3] was “did not proliferate”. In data set [3] (5 million CAR-T, 5 weeks), the body weight result is “No apparent body weight loss”. Moreover, the cures in the data set with MDA-MB-231 was 100%. Further, in the data set on OV90, the cures is on record as 50% and the stable disease is reported as 50%. For the same compound, in the data set with HEK293-FRa, the tumor response entry was “progressive disease”. The spleen size entry in the data set on FR+ MDA-MB-231 tumors (500 nmol/kg three times per week) is given as “enlarged spleens”. Also, the body weight entry in the data set with FR+ MDA-MB-231 tumors (EC17 three times per week) is “body weight loss in the first 10 days”.
